Source: US20230093099A1, “COMPOUNDS AND METHODS OF TREATING CANCERS” (CULLGEN (SHANGHAI), INC., priority 2019, published 2023)

Test system: RS4;11 cells
Assay: Cell viability assay (CellTiter-Glo) in RS4;11 cells
Type: cell-based
Settings: Homo sapiens, 72 h; RS4;11 ALL cells treated for three days; read-out: cell viability inhibition IC50
Summary of the method: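 Three-day compound treatment of RS4;11 ALL cells (5000/well, 3-fold dilution series of 8 or 12 points), with IC50 from a nonlinear least-squares fit to CellTiter-Glo viability data.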

| IC50 [µM] | SMILES |
| --- | --- |
| < 0.1 | CS(=O)(=O)c1ccc(-c2cccc3nc(Nc4ccc(N5CCN(C(=O)CCCCCNc6ccc7c(c6)C(=O)N(C6CCC(=O)NC6=O)C7=O)CC5)cc4)nn23)cc1 (centres unmarked) [JA-198, 2-(2,6-dioxopiperidin-3-yl)-5-((6-(4-(4-((5-(4-(methylsulfonyl)phenyl)-[1,2,4]triazolo[1,5-a]pyridin-2-yl)amino)phenyl)piperazin-1-yl)-6-oxohexyl)amino)isoindoline-1,3-dione] |

Same assay, conditions: Homo sapiens, 72 h; RS4;11 cells; cell viability, 3 days, CellTiter-Glo; read-out: IC50

| SMILES | IC50 [µM] |
| --- | --- |
| CS(=O)(=O)c1ccc(-c2cccc3nc(Nc4ccc(N5CCN(C(=O)CCOCCOCCOCCOCCOCCNc6ccc7c(c6)C(=O)N(C6CCC(=O)NC6=O)C7=O)CC5)cc4)nn23)cc1 (centres unmarked) [JA-193, 2-(2,6-Dioxopiperidin-3-yl)-5-((18-(4-(4-((5-(4-(methylsulfonyl)phenyl)-[1,2,4]triazolo[1,5-a]pyridin-2-yl)amino)phenyl)piperazin-1-yl)-18-oxo-3,6,9,12,15-pentaoxaoctadecyl)amino)isoindoline-1,3-dione] | > 10 |
| Cc1ncsc1-c1ccc(CNC(=O)[C@@H]2C[C@@H](O)CN2C(=O)[C@@H](NC(=O)CCCCCCCNC(=O)CN2CCN(c3ccc(Nc4nc5cccc(-c6ccc(S(C)(=O)=O)cc6)n5n4)cc3)CC2)C(C)(C)C)cc1 [JA-124, (2S,4R)-1-((S)-3,3-Dimethyl-2-(8-(2-(4-(4-((5-(4-(methylsulfonyl)phenyl)-[1,2,4]triazolo[1,5-a]pyridin-2-yl)amino)phenyl)piperazin-1-yl)acetamido)octanamido)butanoyl)-4-hydroxy-N-(4-(4-methylthiazol-5-yl)benzyl)pyrrolidine-2-carboxamide] | > 10 |
| Cc1cnc(Nc2ccc(N3CCN(CC(=O)NCCCCCCCCCC(=O)N[C@H](C(=O)N4C[C@H](O)C[C@H]4C(=O)NCc4ccc(-c5scnc5C)cc4)C(C)(C)C)CC3)cc2)nc1Nc1cccc(S(=O)(=O)NC(C)(C)C)c1 [JA-105, (2S,4R)-1-((S)-2-(10-(2-(4-(4-((4-((3-(N-(tert-Butyl)sulfamoyl)phenyl)amino)-5-methylpyrimidin-2-yl)amino)phenyl)piperazin-1-yl)acetamido)decanamido)-3,3-dimethylbutanoyl)-4-hydroxy-N-(4-(4-methylthiazol-5-yl)benzyl)pyrrolidine-2-carboxamide] | > 10 |

Second part, the compound after the results:

| IC50 [µM] | SMILES |
| --- | --- |
| > 10 | Cc1cnc(Nc2ccc(N3CCN(CC(=O)NCCOCCOCCC(=O)N[C@H](C(=O)N4C[C@H](O)C[C@H]4C(=O)NCc4ccc(-c5scnc5C)cc4)C(C)(C)C)CC3)cc2)nc1Nc1cccc(S(=O)(=O)NC(C)(C)C)c1 [JA-219, (2S,4R)-1-((S)-14-(tert-butyl)-1-(4-(4-((4-((3-(N-(tert-butyl)sulfamoyl)phenyl)amino)-5-methylpyrimidin-2-yl)amino)phenyl)piperazin-1-yl)-2,12-dioxo-6,9-dioxa-3,13-diazapentadecan-15-oyl)-4-hydroxy-N-(4-(4-methylthiazol-5-yl)benzyl)pyrrolidine-2-carboxamide] |
| > 10 | O=C(CN1CCC(n2cc(-c3cnc4cccc(-c5cc(F)c(CN6CCOCC6)c(F)c5)c4n3)cn2)CC1)NCCOCCNc1cccc2c1C(=O)N(C1CCC(=O)NC1=O)C2=O (centres unmarked) [JA-139, 2-[4-[4-[8-[3,5-Difluoro-4-(morpholinomethyl)phenyl]quinoxalin-2-yl]pyrazol-1-yl]-1-piperidyl]-N-[2-[2-[[2-(2,6-dioxo-3-piperidyl)-1,3-dioxo-isoindolin-4-yl]amino]ethoxy]ethyl]acetamide] |
| 0.564 | Cc1cnc(Nc2ccc(N3CCN(CC(=O)NCCOCCOCCNc4cccc5c4C(=O)N(C4CCC(=O)NC4=O)C5=O)CC3)cc2)nc1Nc1cccc(S(=O)(=O)NC(C)(C)C)c1 (centres unmarked) [JA-086, 2-(4-(4-((4-((3-(N-(tert-Butyl)sulfamoyl)phenyl)amino)-5-methylpyrimidin-2-yl)amino)phenyl)piperazin-1-yl)-N-(2-(2-(2-((2-(2,6-dioxopiperidin-3-yl)-1,3-dioxoisoindolin-4-yl)amino)ethoxy)ethoxy)ethyl)acetamide] |
| 0.0073 | CS(=O)(=O)c1ccc(-c2cccc3nc(Nc4ccc(N5CCN(C(=O)CCCCCNc6ccc7c(c6)C(=O)N(C6CCC(=O)NC6=O)C7=O)CC5)cc4)nn23)cc1 (centres unmarked) [JA-198, 2-(2,6-dioxopiperidin-3-yl)-5-((6-(4-(4-((5-(4-(methylsulfonyl)phenyl)-[1,2,4]triazolo[1,5-a]pyridin-2-yl)amino)phenyl)piperazin-1-yl)-6-oxohexyl)amino)isoindoline-1,3-dione] |
